Legend:
[1] = tested on: HepG2; assay: Cytotoxicity against human HepG2 cells assessed as reduction in cell viability; format: cell-based
[2] = Cytotoxicity against human HepAD38 cells assessed as reduction in cell viability; format: cell-based
[3] = tested on: Hepatitis B virus; assay: Antiviral activity against HBV infected in human HepAD38 cells assessed as inhibition of viral DNA synthesis by dot blot hybridization method; format: functional, organism-based; set-up: -log(1/EC50): unit not given here; details: for EC50: Hepatitis B virus, HePAD38

SMILES | -log(1/EC50) [3] | EC50 [3] [µM] | Activity [1] | Activity [2]
O=C(N/C(C(=O)N1CCCCC1)=C(\Cl)c1ccccc1)c1ccccc1 | 0.07918 | 1.2 | Non-toxic | Non-toxic
COc1ccccc1/C(Cl)=C(/NC(=O)c1ccccc1)C(=O)N1CCCCC1 | 1.322 | 21 |  | Non-toxic
O=C(N/C(C(=O)N1CCCCC1)=C(\Cl)c1ccccc1F)c1ccccc1 | 0.2553 | 1.8 |  | Non-toxic
N#Cc1ccccc1/C(Br)=C(/NC(=O)c1ccccc1)C(=O)N1CCCCC1 | 0.04139 | 1.1 |  | Non-toxic
O=C(N/C(C(=O)N1CCCCC1)=C(\Cl)c1cncc2ccccc12)c1ccccc1 | 1.462 | 29 |  | Non-toxic
O=C(N/C(C(=O)N1CCCCC1)=C(\Br)c1ccccc1[N+](=O)[O-])c1ccccc1 | 0.7782 | 6 |  | Non-toxic
Cc1ccc(/C(Br)=C(/NC(=O)c2ccccc2)C(=O)N2CCCCC2)cc1 | 0.4472 | 2.8 |  | Non-toxic
COc1ccccc1/C(Br)=C(/NC(=O)c1ccccc1)C(=O)N1CCCCC1 | 0.3222 | 2.1 |  | Non-toxic
COc1ccc(/C(Br)=C(/NC(=O)c2ccccc2)C(=O)N2CCCCC2)cc1 | 0.9031 | 8 |  | Non-toxic
O=C(N/C(C(=O)N1CCCCC1)=C(\Br)c1ccccc1Br)c1ccccc1 | 1.398 | 25 |  | Non-toxic
O=C(N/C(C(=O)N1CCCCC1)=C(\Br)c1cccc(Br)c1)c1ccccc1 | 1.544 | 35 |  | Non-toxic
O=C(N/C(C(=O)N1CCCCC1)=C(\Br)c1ccc(Br)cc1)c1ccccc1 | 1.813 | 65 |  | Non-toxic
O=C(N/C(C(=O)N1CCCCC1)=C(\Br)c1ccccc1Cl)c1ccccc1 | 0.9031 | 8 |  | Non-toxic
O=C(N/C(C(=O)N1CCCCC1)=C(\Br)c1cnc2ccccc2c1)c1ccccc1 | 0.8451 | 7 |  | Non-toxic
O=C(N/C(C(=O)N1CCCCC1)=C(\Br)c1ccco1)c1ccccc1 | -0.04576 | 0.9 |  | Non-toxic
O=C(N/C(C(=O)N1CCCCC1)=C(\Cl)c1ccccc1[N+](=O)[O-])c1ccccc1 | 1.531 | 34 |  | Non-toxic
COc1ccc(/C(Cl)=C(/NC(=O)c2ccccc2)C(=O)N2CCCCC2)cc1 | 1.398 | 25 |  | Non-toxic
O=C(N/C(C(=O)N1CCCCC1)=C(\Cl)c1ccccc1Br)c1ccccc1 | 2 | > 100 |  | Non-toxic
O=C(N/C(C(=O)N1CCCCC1)=C(\Cl)c1cccc(Br)c1)c1ccccc1 | 2 | > 100 |  | Non-toxic
O=C(N/C(C(=O)N1CCCCC1)=C(\Cl)c1ccc(Br)cc1)c1ccccc1 | 2 | > 100 |  | Non-toxic
O=C(N/C(C(=O)N1CCCCC1)=C(\Cl)c1ccc(F)cc1)c1ccccc1 | 0.3424 | 2.2 |  | Non-toxic
O=C(N/C(C(=O)N1CCCCC1)=C(\Cl)c1cccnc1)c1ccccc1 | -0.02687 | 0.9 |  | Non-toxic

Further lines, with some results ahead:

-log(1/EC50) [3] | EC50 [3] [µM] | SMILES | Activity [1] | Activity [2]
-0.004365 | 1 | Cc1ccccc1/C(Cl)=C(/NC(=O)c1ccccc1)C(=O)N1CCCCC1 |  | Non-toxic
1.708 | 51 | O=C(N/C(C(=O)N1CCCCC1)=C(\Cl)c1ccc(Cl)cc1)c1ccccc1 |  | Non-toxic
0.04139 | 1.1 | Cc1ccc(/C(Cl)=C(/NC(=O)c2ccccc2)C(=O)N2CCCCC2)cc1 |  | Non-toxic
0.1139 | 1.3 | O=C(N/C(C(=O)N1CCCCC1)=C(\Br)c1ccccc1)c1ccccc1 |  | Non-toxic
-0.09691 | 0.8 | O=C(N/C(C(=O)N1CCCCC1)=C(\Cl)c1ccco1)c1ccccc1 |  | Non-toxic
1 | 10 | O=C(N/C(C(=O)N1CCCCC1)=C(\Br)c1ccc(Cl)cc1)c1ccccc1 |  | Non-toxic
-0.05061 | 0.9 | Cc1ccccc1/C(Br)=C(/NC(=O)c1ccccc1)C(=O)N1CCCCC1 |  | Non-toxic
0.1761 | 1.5 | O=C(N/C(C(=O)N1CCCCC1)=C(\Br)c1ccccc1F)c1ccccc1 |  | Non-toxic
0.2553 | 1.8 | O=C(N/C(C(=O)N1CCCCC1)=C(\Br)c1ccc(F)cc1)c1ccccc1 |  | Non-toxic
0 | 1 | O=C(N/C(C(=O)N1CCCCC1)=C(\Br)c1cccnc1)c1ccccc1 |  | Non-toxic
0.699 | 5 | O=C(N/C(C(=O)N1CCCCC1)=C(\Br)c1cncc2ccccc12)c1ccccc1 |  | Non-toxic
0.2304 | 1.7 | N#Cc1ccccc1/C(Cl)=C(/NC(=O)c1ccccc1)C(=O)N1CCCCC1 |  | Non-toxic
1.591 | 39 | O=C(N/C(C(=O)N1CCCCC1)=C(\Cl)c1ccccc1Cl)c1ccccc1 |  | Non-toxic
1.477 | 30 | O=C(N/C(C(=O)N1CCCCC1)=C(\Cl)c1cnc2ccccc2c1)c1ccccc1 |  | Non-toxic

— ChEMBL document CHEMBL3588769, “Synthesis and quantitative structure-activity relationships study for phenylpropenamide derivatives as inhibitors of hepatitis B virus replication” (Eur J Med Chem, 2015)
